Assay results taken from article PMC3135787 (Antiviral research, 2011).
“And” between values parts separate entries of the source, which are not always exact repeats. Equal entries are not always repeated. Where two headings read alike, the source gives them in different places.

Legend:
[1] = tested on: genotype 2a J6/JFH-1 subgenomic replicon; experiment: HCV replicon assay, genotype 2a J6/JFH-1; assay type: cell-based; settings: GT2a_JFH-1 replicon, four days
[2] = tested on: ET replicon with NS5B S96T/N142T; experiment: microbe, parasite or virus in culture; assay type: cell-based, HCV
[3] = tested on: CEM cells; experiment: 8-day MTS cytotoxicity assay, CEM; assay type: cell-based, human; settings: CEM, eight days, MTS
[4] = tested on: ET replicon with NS5B C316Y; experiment: microbe, parasite or virus in culture; assay type: cell-based, HCV
[5] = tested on: Clone A replicon with NS5B S282T; experiment: microbe, parasite or virus in culture; assay type: cell-based, HCV
[6] = biological target: T1, recombinant human ADAL1 (Homo sapiens, UniProt Q6DHV7); experiment: ADAL1-mediated demethylation assay; assay type: biochemical; settings: ADAL1, pH 6.7, 37°C
T1 sequence (Q6DHV7 1-355): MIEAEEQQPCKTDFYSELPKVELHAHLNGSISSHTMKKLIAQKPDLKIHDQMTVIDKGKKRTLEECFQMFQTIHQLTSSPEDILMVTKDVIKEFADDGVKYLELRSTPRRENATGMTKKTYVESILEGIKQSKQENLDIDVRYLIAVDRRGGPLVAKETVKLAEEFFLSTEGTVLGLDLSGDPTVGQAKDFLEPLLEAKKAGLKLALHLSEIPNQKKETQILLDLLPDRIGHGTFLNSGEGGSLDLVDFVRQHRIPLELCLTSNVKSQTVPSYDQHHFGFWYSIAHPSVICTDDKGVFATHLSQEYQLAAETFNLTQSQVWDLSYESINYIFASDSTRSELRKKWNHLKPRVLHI

[7] = tested on: erythroid progenitor cells (CFU-E and BFU-E); experiment: Human bone marrow stem cell toxicity, 14-day colony formation, erythroid; assay type: cell-based; settings: read-out: IC50, erythroid progenitor cells (CFU-E and BFU-E); 14-day colony formation assay
[8] = tested on: HCV 2a JFH-1 infectious virus; experiment: Infectious virus assay, genotype 2a; assay type: cell-based; settings: GT2a_JFH-1 infectious virus, En5-3 cells, three days
[9] = tested on: CEM cells; experiment: Lactic acid production, CEM; settings: 7 days, normalised to rDNA
[10] = tested on: Huh7 cells; experiment: 8-day MTS cytotoxicity assay, Huh7; assay type: cell-based, human; settings: Huh7, eight days, MTS
[11] = tested on: HepG2 cells; experiment: Lactic acid production, HepG2; settings: 7 days, normalised to rDNA
[12] = tested on: myeloid progenitor cells (CFU-GM); experiment: Human bone marrow stem cell toxicity, 14-day colony formation, myeloid; assay type: cell-based; settings: read-out: IC50, myeloid progenitor cells (CFU-GM); 14-day colony formation assay
[13] = tested on: ET replicon with NS5B P495L; experiment: microbe, parasite or virus in culture; assay type: cell-based, HCV
[14] = tested on: ET replicon with NS5B M414T; experiment: microbe, parasite or virus in culture; assay type: cell-based, HCV
[15] = tested on: BxPC3 cells; experiment: 8-day MTS cytotoxicity assay, BxPC3; assay type: cell-based, human; settings: BxPC3, eight days, MTS
[16] = tested on: HCV 1a H77Sv2 infectious virus; experiment: Infectious virus assay, genotype 1a; assay type: cell-based; settings: GT1a_H77 infectious virus, En5-3 cells, three days
[17] = tested on: genotype 1b ET replicon, wild type; assay type: cell-based, HCV; settings: read-out: EC90 WT replicon
[18] = tested on: Clone A wild type replicon; experiment: Cross resistance: Clone A wild type replicon, RT-PCR; assay type: cell-based, HCV; settings: read-out: EC90 WT replicon; Clone A wild type replicon, RT-PCR assay
[19] = tested on: genotype 1b replicon (Con1 strain); experiment: HCV replicon assay, genotype 1b Con1; assay type: cell-based; settings: GT1b_Con1 replicon, four days
[20] = tested on: HepG2 cells; experiment: Mitochondrial COXII DNA and ribosomal DNA by real time PCR, HepG2; assay type: cell-based, human; settings: HepG2 cells; for CC90: fourteen days
[21] = tested on: primary human hepatocytes; experiment: Metabolism of [3H]-PSI-353661 in primary human hepatocytes; assay type: in vitro ADME; settings: 5 μM [3H]-PSI-353661, up to 24 hours
[22] = tested on: ET replicon with NS5B M423T; assay type: cell-based, HCV
[23] = tested on: ET-Lunet replicon cells; experiment: HCV replicon clearance and rebound study; assay type: cell-based; settings: for clearance of replicon RNA (colony formation after 14 days G418 without compound): 14 days treatment
[24] = biological target: human cathepsin A (Cat A) (Homo sapiens, UniProt P10619); experiment: Hydrolysis of the carboxyl ester by cathepsin A; assay type: biochemical; settings: CatA, 100 μM substrate, 37 °C
human cathepsin A (Cat A), sequence (P10619 29-326 limits assumed): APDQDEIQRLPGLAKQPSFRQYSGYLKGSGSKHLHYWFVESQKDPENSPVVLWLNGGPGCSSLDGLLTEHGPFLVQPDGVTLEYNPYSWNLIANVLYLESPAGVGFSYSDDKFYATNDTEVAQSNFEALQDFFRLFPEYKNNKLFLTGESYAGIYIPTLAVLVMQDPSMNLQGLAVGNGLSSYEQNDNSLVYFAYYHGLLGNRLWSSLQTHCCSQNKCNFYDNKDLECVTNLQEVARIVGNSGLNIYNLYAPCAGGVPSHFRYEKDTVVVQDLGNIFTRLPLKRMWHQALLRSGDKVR
human cathepsin A (Cat A), sequence (P10619 327-480 limits assumed): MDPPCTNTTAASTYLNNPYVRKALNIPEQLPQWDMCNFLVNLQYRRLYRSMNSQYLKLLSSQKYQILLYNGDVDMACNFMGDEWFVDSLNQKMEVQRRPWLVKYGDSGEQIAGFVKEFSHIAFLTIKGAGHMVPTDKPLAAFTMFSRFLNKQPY

[25] = tested on: genotype 1a H77 subgenomic replicon; experiment: HCV replicon assay, genotype 1a H77; assay type: cell-based; settings: GT1a_H77 replicon, four days
[26] = biological target: human carboxylesterase 1 (CES-1) (Homo sapiens, UniProt P23141); experiment: Hydrolysis of the carboxyl ester by carboxylesterase 1; assay type: biochemical
human carboxylesterase 1 (CES-1), sequence (P23141 18-567): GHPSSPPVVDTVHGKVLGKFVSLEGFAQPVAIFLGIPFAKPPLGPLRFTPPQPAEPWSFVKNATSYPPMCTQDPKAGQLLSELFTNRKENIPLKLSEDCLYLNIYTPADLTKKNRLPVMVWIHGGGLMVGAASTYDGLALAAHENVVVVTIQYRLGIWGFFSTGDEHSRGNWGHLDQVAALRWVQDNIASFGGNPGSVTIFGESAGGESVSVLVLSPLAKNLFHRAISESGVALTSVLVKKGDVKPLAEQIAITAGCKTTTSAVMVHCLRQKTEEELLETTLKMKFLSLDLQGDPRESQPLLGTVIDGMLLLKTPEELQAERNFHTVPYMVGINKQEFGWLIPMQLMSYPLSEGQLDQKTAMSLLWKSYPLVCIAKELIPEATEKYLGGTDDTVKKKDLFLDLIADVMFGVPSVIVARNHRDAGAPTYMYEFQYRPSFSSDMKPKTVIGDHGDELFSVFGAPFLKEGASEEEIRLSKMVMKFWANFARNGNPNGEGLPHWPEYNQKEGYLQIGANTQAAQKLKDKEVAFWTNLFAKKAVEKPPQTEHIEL

[27] = tested on: CEM cells; experiment: Mitochondrial COXII DNA and ribosomal DNA by real time PCR, CEM; assay type: cell-based, human; settings: CEM cells; for CC90: fourteen days
[28] = tested on: HepG2 cells; experiment: 8-day MTS cytotoxicity assay, HepG2; assay type: cell-based, human; settings: HepG2, eight days, MTS

In the case of `COc1nc(N)nc2c1ncn2[C@@H]1O[C@H](COP(=O)(N[C@@H](C)C(=O)OC(C)C)Oc2ccccc2)[C@@H](O)[C@@]1(C)F` (stereo partly drawn) [PSI-353661, (S)-2-{(S)-[(1R,4R,5R)-5-(2-amino-6-methoxy-purin-9-yl)-4-(R)-fluoro-3-hydroxy-4-methyl-tetrahydro-furan-2-ylmethoxy]-phenoxy-phosphorylamino}-propionic acid isopropyl ester], the EC50 [1] is reported as 6.5 ± 2.1 nM, the EC90 [1] is reported as 14 ± 1.4 nM and the EC90 fold change [2] is reported as 0.7. It also gave an EC90 ([2]; read-out: EC90 Mutant replicon, S96T/N142T, luciferase-based assay) of 8.7 ± 3.7 nM, a CC50 [3] greater than 100000 nM and an EC90 fold change [4] of 0.8. The EC90 ([4]; read-out: EC90 Mutant replicon, C316Y, luciferase-based assay) was 9.8 ± 3.5 nM, the EC90 fold change [5] was 1.5 and the EC90 ([5]; read-out: EC90 Mutant replicon, S282T, RT-PCR assay) was 14 ± 2.6 nM. For the same compound, the Km [6] was “No activity”, the kcat [6] was “No activity” and the “kcat / Km” value [6] was “No activity”. The IC50 [7] was greater than 50000 nM, the EC50 [8] was 1.6 nM and the EC90 [8] was 11.2 nM. The “Lactic acid (Fold change from untreated cells)” value ([9]; 0.1 μM) was 1.4 ± 0.36, the “Lactic acid (Fold change from untreated cells)” value ([9]; 1.0 μM) was 1.4 ± 0.10 and the “Lactic acid (Fold change from untreated cells)” value ([9]; 10 μM) was 1.4 ± 0.31. The “Lactic acid (Fold change from untreated cells)” value ([9]; 50 μM) was 1.3 ± 0.40, the CC50 [10] was 80000 ± 6000 nM and the “Lactic acid (Fold change from untreated cells)” value ([11]; 0.1 μM) was 1.2 ± 0.35. The “Lactic acid (Fold change from untreated cells)” value ([11]; 1.0 μM) was 1.2 ± 0.29, the “Lactic acid (Fold change from untreated cells)” value ([11]; 10 μM) was 1.1 ± 0.06 and the “Lactic acid (Fold change from untreated cells)” value ([11]; 50 μM) was 1.3 ± 0.31. The IC50 [12] was 45000 ± 2000 nM, the EC90 fold change [13] was 1.0 and the EC90 ([13]; read-out: EC90 Mutant replicon, P495L, luciferase-based assay) was 12 ± 0.34 nM. It also gave an EC90 fold change [14] of 1.0, an EC90 ([14]; read-out: EC90 Mutant replicon, M414T, luciferase-based assay) of 12 ± 2.2 nM and a CC50 [15] greater than 100000 nM. For the same compound, the EC50 [16] was 3.5 nM, the EC90 [16] was 8.6 nM and the EC90 [17] was 12 ± 4 nM. The EC90 [18] was 9 nM and 9.3 nM, the EC50 [19] was 3 ± 1.4 nM and the EC90 [19] was 8.5 ± 0.7 nM. The “effect on mitochondrial DNA content” value ([20]; up to 100 μM, 14 days) was “did not affect mitochondrial DNA content”, the CC90 ([20]; read-out: CC90 mtDNA) was greater than 100000 nM and the CC90 ([20]; read-out: CC90 rDNA) was greater than 100000 nM. The “intracellular level of parent compound” value [21] was “undetectable”, the EC90 fold change [22] was 0.8 and the EC90 ([22]; read-out: EC90 Mutant replicon, M423T, luciferase-based assay) was 9.7 ± 1.9 nM. For the same compound, the “reduction of HCV replicon RNA” value ([23]; 8 nM (2× EC50), end of first 14-days, no G418) was 1 log, the “decrease in HCV replicon RNA” value ([23]; 20 nM dose, end of first 14-days, no G418) was greater than 4 log and the “clearance of replicon RNA (colony formation after 14 days G418 without compound)” value ([23]; 20 nM) was “partial clearance”. The “HCV RNA level” value ([23]; 40 and 80 nM doses, by day 10) was “undetectable”, the “clearance of replicon RNA (colony formation after 14 days G418 without compound)” value ([23]; 40 and 80 nM) was “completely eliminated the replicon” and the EC50 ([23]; read-out: EC50 value, ET-Lunet replicon cells, value used to set clearance doses) was 4 nM. The “specific activity of hydrolysis to PSI-353131” value [24] was 0.80 µmol/min/mg, the EC50 [25] was 4.5 ± 0.7 nM and the EC90 [25] was 10.5 ± 0.7 nM. The “rate of hydrolysis (specific activity)” value ([26]; CES1, 100 μM substrate, 37 °C, not time-dependent) was roughly 0.034 µmol/min/mg, the “fraction converted to product PSI-353131” value ([26]; incubation with CES1) was roughly 10% and the “effect on mitochondrial DNA content” value ([27]; up to 100 μM, 14 days) was “did not affect mitochondrial DNA content”. The CC90 ([27]; read-out: CC90 mtDNA) was greater than 100000 nM, the CC90 ([27]; read-out: CC90 rDNA) was greater than 100000 nM and the CC50 [28] was greater than 100000 nM.
